Measurements from patent US20230365988A1, “MOUSE MODEL FOR BIO-IMAGING OF INFLAMMATORY SIGNALS, PREPARATION METHOD THEREFOR AND USE THEREOF” (KOREA MOUSE PHENOTYPING CENTER, priority 2020, published 2023).
“Also recorded” adds a separate entry of the source.

What was measured:
NF-κB [1] = test: Luciferase activity in LPS-treated bone marrow-derived macrophages of the myeloid-specific NF-κB reporter mouse; assay type: cell-based; settings: 6 hours
Protocol: (§1) Macrophages, mononuclear cells, derived from the bone marrow of the mouse model established in Example <2-1> were differentiated, luciferase activity was confirmed, and NF-κ activity and luciferase protein expression were confirmed by Western blotting. In addition, 20 uM BAY 11-7082 (NF-kB inhibitor) was treated simultaneously with LPS in the same manner as above to evaluate the luciferase activity.
Particularly, the mouse was euthanized with CO2, the femur and tibia were obtained, and the bone marrow cavity was exposed. Then, RPMI 1640 culture medium (10% FBS, 1% penicillin, stretptomycin) containing M-CSF was passed through using a 1 ml syringe, and the contents were collected to make 6 ml of the culture medium. Thereafter, the contents were transferred to a Petri dish and cultured for 3 days at 37° C. under 5% CO2 conditions, and then the medium was replaced with fresh RPMI 1640 culture medium. After 3 days, the culture medium was removed from the Petri dish and washed with PBS (phosphate buffered saline). […] After 6 hours, the culture medium was removed, and 100 μl of HBSS (Hanks' Balanced Salt solution) containing D-luciferin was added to each well of the plate, and then the luciferase activity was evaluated.

NF-κB [2] = test: PMA-induced ear edema model, luciferase imaging; assay type: in vivo; settings: 2 μg PMA on left ear twice at a 24 hour interval, measured 24 hours later, Lyz2-Cre reporter mouse
Protocol: To confirm imaging of inflammatory signals in the mouse model established in Example <2-1>, ear edema was induced by treatment with PMA (phorbol 12-myristate 13-acetate), an inflammatory factor.
Particularly, the left ear of the mouse was treated with 2 μg/40 ? of PMA diluted in ethanol using a micropipette, and the right ear was treated with the same amount of ethanol (40 ? ). After 24 hours, the left ear was treated with 2 μg of PMA, and the right ear was treated with the same amount of ethanol (40 ? ). After another 24 hours, 100 ? of D-luciferin (15 mg/ml in PBS) was intraperitoneally administered using a 1 ml syringe, and luciferase signals were measured in the ears of the mouse under respiratory anesthesia with isoflurane.

NF-κB [3] = test: DSS-induced colitis model, luciferase imaging; assay type: in vivo; settings: 3% DSS as drinking water, days 3 and 5, Lyz2-Cre reporter mouse
Protocol: Colitis was induced by DSS (dextran sulfate sodium salt) in the mouse model established in Example <2-1>, and it was confirmed whether bio-imaging of inflammatory signals over time was possible.
Particularly, 6 g of DSS was added to sterilized tertiary distilled water and stirred for 60 minutes to prepare a 3% DSS aqueous solution. […] After the measurement, the 3% DSS aqueous solution was supplied as drinking water to the mice. While maintaining DSS supply, 100 ? of D-luciferin (15 mg/ ? in PBS) was intraperitoneally administered using a 1 ? syringe on the days after 3 and 5 days after the start of DSS supply, and luciferase signals were measured in the abdomen.

NF-κB [4] = test: Western blotting of luciferase expression in LPS-treated bone marrow-derived macrophages; assay type: cell-based, mouse; settings: LPS 10 ng/ml and 100 ng/ml, 6 hours
Protocol: as §1
For Western blotting, the detached cells were diluted in RPMI 1640 culture medium, and then distributed in a 6 well plate at the density of 70,000 cells/well, followed by culture. After 24 hours of culture, the experimental group was treated with LPS at the concentrations of 10 ng/ml and 100 ng/ml for 6 hours. The culture medium was removed and homogenized with a buffer containing 20 mM Tris-HCl (pH 7.4), 1% Triton X-100, 15 mM NaCl and protease inhibition cocktail, and centrifuged at 4° C., 13,000 g for 20 minutes. Then, SDS-PAGE (sodium dodecyl sulfate-polyacrylamide gel electrophoresis) was performed using the supernatant to separate proteins. The separated proteins were transferred to a PVDF membrane and blocked with TBST buffer (Tris-Buffered Saline, 0.1% TWEEN 20) containing 5% skim milk powder. […]

## Cc1ccc(S(=O)(=O)/C=C/C#N)cc1 [BAY 11-7082]
NF-κB [1]; 20 uM BAY 11-7082 simultaneously with LPS (10 and 100 ng/ml)
  LPS-increased luciferase signal activity (NF-kB activity) after inhibitor treatment: inhibited; also recorded: suppressed

## CCCCCCCCCCCCCC(=O)O[C@@H]1[C@@H](C)[C@@]2(O)[C@@H](C=C(CO)C[C@]3(O)C(=O)C(C)=C[C@@H]23)[C@@H]2C(C)(C)[C@]12OC(C)=O [PMA, phorbol 12-myristate 13-acetate]
NF-κB [2]
  luciferase signal in treated left ear compared to ethanol-treated right ear: specifically strong

## dextran sulfate sodium salt [DSS]
NF-κB [3]
  luciferase signal in the large intestine region of the abdomen: strongly expressed

## lipopolysaccharide [LPS]
NF-κB [1]; LPS 10 ng/ml and 100 ng/ml
  luciferase signal activity: increased by LPS dose-dependently
NF-κB [4]
  luciferase expression by Western blotting: luciferase expression was increased
